The values that follow come from ChEMBL document CHEMBL2396526, “Chromenylchalcones showing cytotoxicity on human colon cancer cell lines and in silico docking with aurora kinases” (Bioorg Med Chem, 2013).

Usually IC50 stands for the concentration needed to halve the response being measured.

The first assay deals with HCT-116. In words: Cytotoxicity against human HCT116 cells by MTT assay.
Settings: not given
Type of assay: functional, cell-based.
Take `O=C(O[C@H]1Cc2c(O)cc(O)cc2O[C@@H]1c1ccc(O)c(O)c1)c1cc(O)c(O)c(O)c1` [CATECHIN GALLATE]: it took 53 µM to reach half-maximal inhibition (IC50). On the same count and under the same terms, the figure for `O=C(O[C@@H]1Cc2c(O)cc(O)cc2O[C@@H]1c1ccc(O)c(O)c1)c1cc(O)c(O)c(O)c1` [EPICATECHIN GALLATE] is 76 µM.

The test system of another assay is HCT-116. In words: Cytotoxicity against human HCT116 cells assessed as cell survival at 5 to 40 uM after 7 days by crystal violet staining assay. In kind it is functional, cell-based. The note with it: HCT-116, 168 h.
Consider `COc1cccc(C(=O)/C=C/C2=Cc3cc(Br)ccc3OC2)c1`, for which the half-inhibitory concentration (IC50) was determined as 4.56 µM.

For `COc1cc(OC)cc(C(=O)/C=C/C2=Cc3cc(Br)ccc3OC2)c1`, the IC50 came to 3.4 µM.

On to `COc1ccc2c(c1)C=C(/C=C/C(=O)C1=Cc3cc(OC)ccc3OC1)CO2`, for which the IC50 came to 12.9 µM. As for `COc1ccc(C(=O)/C=C/C2=Cc3ccc(OC)cc3OC2)cc1`, the IC50 was 10.5 µM. For the molecule `COc1ccc2c(c1)C=C(C(=O)/C=C/c1ccccc1OC)CO2`, the IC50 stood at 1.62 µM. Consider `COc1ccc(/C=C/C(=O)C2=Cc3cc(OC)ccc3OC2)cc1`, for which the IC50 was 0.59 µM. For `COc1ccccc1C(=O)/C=C/C1=Cc2cc(Br)ccc2OC1`, the IC50 came to 6.13 µM.

For `COc1ccc2c(c1)C=C(C(=O)/C=C/c1cc(OC)c(OC)cc1OC)CO2`, the IC50 came out at 2.5 µM. On the same count and under the same terms, to `COc1ccc2c(c1)C=C(/C=C/C(=O)c1ccccc1OC)CO2` belongs 1.04 µM; to `COc1ccc2c(c1)C=C(C(=O)/C=C/c1ccc(OC)cc1OC)CO2`, 3.97 µM; to `COc1ccc2c(c1)C=C(C(=O)/C=C/C1=Cc3ccc(OC)cc3OC1)CO2`, 18.8 µM. Turning to `COc1cc(/C=C/C(=O)C2=Cc3cc(OC)ccc3OC2)cc(OC)c1`, the IC50 came to 0.33 µM.

On to `COc1ccc(C(=O)/C=C/C2=Cc3cc(OC)ccc3OC2)cc1`, for which the IC50 stood at 7.95 µM. Turning to `COc1ccc2c(c1)C=C(C(=O)/C=C/C1=Cc3cccc(OC)c3OC1)CO2`, the IC50 came to 7.19 µM. Take `COc1cc(OC)cc(C(=O)/C=C/C2=Cc3cc(OC)ccc3OC2)c1`: the IC50 turned out to be 35.5 µM.
